Source: patent publication US9157062B2, “Compositions and methods for promoting the generation of PDX1+ pancreatic cells” (President and Fellows of Harvard College, priority 2008, dated 2015)

How the values were obtained:
[1] = tested on: HUES8-derived population (Pdx1+ cells); experiment: Pdx1 antibody staining of treated HUES8-derived population; type: cell-based, human; conditions: HUES8-derived population, 4 days; 300 nM ILV and/or 50 ng/ml FGF10
Description: To generate a starting population, HUES cells were cultured on MEF feeder cells until 80-90% confluent, then treated with 25 ng/ml Wnt3a (R&D systems)+100 ng/ml Activin A (R&D systems) in advanced RPMI (A-RPMI, Invitrogen) supplemented with 1×L-Glu and 1×PS for 1 day, and then 100 ng/ml Activin A in A-RPMI supplemented with 1×L-Glu, 1×PS and 0.2% FBS (Invitrogen). Two days later, the media was changed to 50 ng/ml FGF10 (R&D systems)+0.25 μM KAAD-CYC (Calbiochem) in A-RPMI supplemented with 1×L-Glu, 1×PS and 2% FBS and maintained for additional 2 days. Cells were then transferred to 50 ng/ml FGF10+0.25 μM KAAD-CYC+2 μM RA (Sigma) in DMEM supplemented with 1×L-Glu, 1×PS, 1×B27 (Invitrogen) and cultured for an additional 4 days. ILV was obtained from Axxora, KAAD-CYC, TPB, PMA, BISI, Gö 6983, U0126 and PD98059 were obtained from Calbiochem and RA were obtained from Sigma.
(§1) Cells were fixed with 10% formalin solution (Sigma) for 20 min at room temperature. Immunostaining was carried out with standard protocols. The following primary antibodies were used: goat anti-Pdx1 (1:500; R&D system); rabbit anti-FOXA2 (1:500; Upstate); rabbit anti-HNF6 (1:200; Santa Cruz Biotech); guinea pig anti-insulin (1:1000; Dako); rabbit anti-c-peptide (1:500; Linco); rabbit anti-amylase (1:200, Sigma); goat anti-HNF1β (1:100, Santa Cruz Biotech); and biotinylated DBA (1:400; Vector Lab). Alexa-488-, Alexa-555, and Alexa-647-conjugated donkey antibodies against mouse, rabbit, guinea pig and goat, and Pacific Blue conjugate-streptavidin (Invitrogen) were used at 1:300 dilution.
To determine whether PKC signaling is being activated in HUES-derived cells, HUES8-derived definitive endoderm population was treated with two PKC agonists, TPB ((2S,5S)-(E,E)-8-(5-(4-(trifluoromethyl)phenyl)-2,4-pentadienoylamino)benzolactam) and PMA (phorbol-12-myristate-13-acetate), in the absence of ILV. […] Furthermore, HUES8-derived population was treated with two PKC antagonists, BISI (Bisindolylmaleimide I) and Gö 6983, in the presence of ILV.
Experiments were performed to monitor downstream signaling by PKC. Since ERK signaling has been reported to be regulated by PKC (Ueda et al., 1996), the activity of ERK signaling was examined with Western blotting to detect the phosphorylation of ERK1/2 at Thr-202/Tyr-204.

[2] = tested on: mouse ESC-derived definitive endoderm with Pdx1-GFP reporter; experiment: Pancreatic differentiation of mESC-derived definitive endoderm (Pdx1-GFP reporter); type: cell-based; conditions: 300 nM ILV
Description: Mouse embryonic stem cells (mESCs) with Pdx1-GFP reporter are routinely cultured on irradiated CF-1 MEF feeder cells in KnockOut DMEM (Invitrogen) supplemented with 15% FBS (Hyclone), 2 mM L-Glu, 1.1 mM 2-mercaptoethanol, 1 mM nonessential amino acids, 1×PS and 10^3 unit LIF (Chemicon). Cells are passaged at the ratio of 1:12 every 3 days by using 0.25% trypsin-EDTA (Invitrogen).
To generate a definitive endoderm population, mESCs were plated on gelatin-coated surface at 2500 cell/cm^2 after depletion of MEF feeder cells. Then, the cells were treated with 1000 ng/ml recombinant mouse Nodal (R&D systems) in A-RPMI supplemented with 1×L-Glu, 1×L-PS and 0.2% FBS for 5 days. […]
Total RNAs were extracted with the RNeasy Mini Kit (Qiagen) and reverse-transcribed using SuperScript III RT-PCR system (Invitrogen) according to the manufacturer's protocol. One microliter of cDNA sample was PCR amplified with QuantiFast SYBR Green PCR Kit (Qiagen) and analyzed with DNA engine Opticon2 (MJ Research).
To determine whether ILV functions on other species, the effect of ILV on a population of mouse ESCs (mESCs) that have been induced to form definitive endoderm was examined. […] The increase of Pdx1 expression can be further confirmed with immunostaining (FIG. 3b) and quantitative RT-PCR (qRT-PCR, FIG. 3c). […]

HUES8-derived population = experiment: Ki67 staining for proliferation of Pdx1+ cells; type: cell-based, human; conditions: 300 nM ILV, 4 days
Description: as §1
The results provided above are consistent with (1) ILV promotion of the proliferation or replication of the few pancreatic progenitors present in the starting population and with (2) differentiation induction of definitive endoderm by the compound. To distinguish between these possibilities, a HUES8-derived population was treated with 300 nM ILV for 4 days and analyzed for proliferation by staining with the antibody against Ki67 (marker for proliferating cells).

HUES8 cells = experiment: Differentiation of HUES8 cells to definitive endoderm (Sox17 immunostaining); type: cell-based, human; conditions: 300 nM ILV, 3 days, in the presence or absence of Wnt3a/Activin
Description: ILV was next tested at different steps of the hESC differentiation process (see FIG. 1a). ILV was tested on the differentiation of HUES8 cells to definitive endoderm population, which was assessed by immunostaining with Sox17 antibody.
Secondly, ILV was examined on the definitive endoderm population containing 70% Sox17^+ cells derived from HUES8 by Wnt3a/Activin treatment (D'Amour et al., 2006). […] Thus, ILV functions by inducing pancreatic specification of hESC-derived definitive endoderm population.

[3] = tested on: protein kinase C (PKC) signaling; conditions: some cell lines; Heikkila and Akerman, 1989; Hirota et al., 1987; cited from earlier work

In the case of (−)-Indolactam V [ILV], the “percentage of cells stained by Pdx1 antibody” value [1] is reported as 26.9±2.8%, the “percentage of GFP+ cells” value ([2]; 6 days) is reported as 50.0±6.1% and the “expression of mRNAs of pancreatic markers (Pdx1, Cdcp1, Ptfla, HNF6, FOXA2, Nkx2.2)” value ([2]; qRT-PCR) is reported as “increase”. For the same substance, the “Pdx1+ cells expressing Ki67” value (HUES8-derived population) was “no Pdx1^+ cells expressing Ki67”, the “differentiation to definitive endoderm (Sox17) versus DMSO control” value (HUES8 cells) was “no detectable difference” and the PKC signaling [3] was “activates”.
